This is an account of results in US20260092061A1, “COMPOUNDS FOR TARGETED PROTEIN DEGRADATION” (Amphista Therapeutics Limited, priority 2022, published 2026).

Experiment [1] concerns the target T1, BRD9 (Homo sapiens, UniProt Q9H8M2).
T1 sequence (Q9H8M2 1-597): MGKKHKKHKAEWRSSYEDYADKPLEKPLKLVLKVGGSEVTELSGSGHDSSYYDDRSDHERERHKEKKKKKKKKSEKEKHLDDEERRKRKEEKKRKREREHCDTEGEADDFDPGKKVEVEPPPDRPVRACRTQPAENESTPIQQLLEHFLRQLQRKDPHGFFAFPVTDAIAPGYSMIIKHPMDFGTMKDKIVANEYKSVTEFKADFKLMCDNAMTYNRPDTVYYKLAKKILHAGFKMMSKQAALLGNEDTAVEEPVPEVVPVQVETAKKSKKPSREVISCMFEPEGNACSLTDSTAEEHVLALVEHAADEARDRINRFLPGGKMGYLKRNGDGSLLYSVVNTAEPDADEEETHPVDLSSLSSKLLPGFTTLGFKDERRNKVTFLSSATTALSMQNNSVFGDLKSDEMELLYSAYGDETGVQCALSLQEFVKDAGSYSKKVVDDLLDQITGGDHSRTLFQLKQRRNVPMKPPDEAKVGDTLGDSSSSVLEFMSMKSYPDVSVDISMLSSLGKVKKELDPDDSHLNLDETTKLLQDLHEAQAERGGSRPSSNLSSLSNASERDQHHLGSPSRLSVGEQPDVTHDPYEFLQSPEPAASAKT
Briefly: BRD9 degradation, HiBiT-BRD9 KI HEK293 (LgBiT) cells, NanoGlo Lytic Endpoint assay (Assay Protocol 1). The class given is cell-based. The conditions noted are these: Assay protocol 1, BRD9 degradation; for DC50: read-out: DC50; for Dmax: HEK293, read-out: Dmax. The method in brief:
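HiBiT-tagged BRD9 knock-in HEK293 (LgBiT) cells exposed to compounds for 6 h at 37 °C, 5% CO2. Residual BRD9 measured by HiBiT lytic luminescence. % BRD9 remaining normalised to DMSO-treated cells (high) and no-cell wells (low).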

In experiment [2] the target is T1, BRD9. Briefly: Degradation of BRD9 (IF), immunofluorescence in MV4-11 cells, 24 hours (Assay Protocol 2). Also on record: A suspension of MV4-11 cells (ATCC CRL-9591) was prepared; host or cells: MV4-11. Format: cell-based. As to conditions: BRD9 degradation; for DC50: Assay protocol 2, read-out: DC50; for Dmax: MV4-11, Assay protocol 2, read-out: Dmax. The essentials: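 % BRD9 remaining, scaled between DMSO (high) and 100 nM CFT-8634 (low) control wells, derives from mean Alexa 647 contrast in central nuclei by high-content imaging. MV4-11 cells had 24 h compound exposure at 37° C. before PFA fixation, Triton permeabilisation and anti-BRD9 E4Q3F immunostaining.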

What is called DC50 is the concentration at which degradation of the target reaches its halfway point. The Dmax is the greatest extent of degradation seen. As to `COc1cc(-c2cn(C)c(=O)c(C)c2C)cc(OC)c1CN(C)C(=O)c1cccc2c1CCN(C(=O)/C(C#N)=C/c1cccc(Br)n1)C2C` (mixture of isomers) [Compound B16, (E/Z)-2-(3-(6-bromopyridin-2-yl)-2-cyanoacryloyl)-N-(2,6-dimethoxy-4-(1,4,5-trimethyl-6-oxo-1,6-dihydropyridin-3-yl)benzyl)-N,1-dimethyl-1,2,3,4-tetrahydroisoquinoline-5-carboxamide], in experiment [1], the DC50 is less than 1.25 nM and the Dmax is more than 75%. In experiment [2], the DC50 lay within 1.25 to 10 nM and the Dmax was more than 75%.
Turning to `COc1cc(-c2cn(C)c(=O)c(C)c2C)cc(OC)c1CN(C)C(=O)c1ccc2c(c1)CCN(C(=O)/C(C#N)=C/c1cccc(Br)n1)C2C` (mixture of isomers) [Compound B17, (E/Z)-2(3-(6-bromopyridin-2-yl)-2-cyanoacryloyl)-N-(2,6-dimethoxy-4-(1,4,5-trimethyl-6-oxo-1,6-dihydropyridin-3-yl)benzyl)-N,1-dimethyl-1,2,3,4-tetrahydroisoquinoline-6-carboxamide], in experiment [1], the DC50 lay in the range of 25 to 1000 nM and the Dmax fell in the range of 40 to 70%. In experiment [2], the half-maximal degradation concentration (DC50) was 25 to 1000 nM and the Dmax was 40 to 70%.
Turning to `COc1cc(-c2cn(C)c(=O)c(C)c2C)cc(OC)c1CN1CCN(Cc2cccc3c2CCN(C(=O)/C(C#N)=C/c2ccc(C)cn2)C3C)CC1` (mixture of isomers) [Compound B18, (E/Z)-2-(5-((4-(2,6-dimethoxy-4-(1,4,5-trimethyl-6-oxo-1,6-dihydropyridin-3-yl)benzyl)piperazin-1-yl)methyl)-1-methyl-1,2,3,4-tetrahydroisoquinoline-2-carbonyl)-3-(5-methylpyridin-2-yl)acrylonitrile], in experiment [1], the DC50 fell in the range of 1.25 to 10 nM and the Dmax was 40 to 70%. Moreover, the Dmax in experiment [2] fell in the range of 25 to 40%.
For the molecule `COc1cc(-c2cn(C)c(=O)c(C)c2C)cc(OC)c1CN1CCN(Cc2cccc3c2CCN(C(=O)/C(C#N)=C/c2cc(C)ccn2)C3C)CC1` (mixture of isomers) [Compound B19, (E/Z)-2-(5-((4-(2,6-dimethoxy-4-(1,4,5-trimethyl-6-oxo-1,6-dihydropyridin-3-yl)benzyl)piperazin-1-yl)methyl)-1-methyl-1,2,3,4-tetrahydroisoquinoline-2-carbonyl)-3-(4-methylpyridin-2-yl)acrylonitrile], in experiment [1], the DC50 was in the range of 1.25 to 10 nM and the Dmax fell in the range of 40 to 70%. The Dmax in experiment [2] lay in the range of 40 to 70%.
For the molecule `COc1cc(-c2cn(C)c(=O)c(C)c2C)cc(OC)c1CN1CCN(Cc2cccc3c2CCN(C(=O)/C(C#N)=C/C2(F)CC2)C3C)CC1` (mixture of isomers) [Compound B20, (E/Z)-2-(5-((4-(2,6-dimethoxy-4-(1,4,5-trimethyl-6-oxo-1,6-dihydropyridin-3-yl)benzyl)piperazin-1-yl)methyl)-1-methyl-1,2,3,4-tetrahydroisoquinoline-2-carbonyl)-3-(1-fluorocyclopropyl)acrylonitrile], in experiment [1], the DC50 was less than 1.25 nM and the Dmax is more than 75%. In experiment [2], the 50% degradation concentration (DC50) was less than 1.25 nM and the Dmax is more than 75%.
As for `COc1cc(-c2cn(C)c(=O)c(C)c2C)cc(OC)c1CN(C)Cc1ccc2c(c1)CCN(C(=O)/C(C#N)=C/c1nc3ccccc3s1)C2C` (mixture of isomers) [Compound B21, (E/Z)-3-(benzo[d]thiazol-2-yl)-2-(6-(((2,6-dimethoxy-4-(1,4,5-trimethyl-6-oxo-1,6-dihydropyridin-3-yl)benzyl)(methyl)amino)methyl)-1-methyl-1,2,3,4-tetrahydroisoquinoline-2-carbonyl)acrylonitrile], in experiment [1], the DC50 lay within 1.25 to 10 nM and the Dmax fell in the range of 40 to 70%. Also, in experiment [2], the DC50 is less than 1.25 nM and the Dmax is 40 to 70%.
As to `COc1cc(-c2cn(C)c(=O)c(C)c2C)cc(OC)c1CN1CCN(Cc2cccc3c2CCN(C(=O)/C(C#N)=C/c2cccc(C)n2)C3C)CC1` (mixture of isomers) [Compound B24, (E/Z)-2-(5-((4-(2,6-dimethoxy-4-(1,4,5-trimethyl-6-oxo-1,6-dihydropyridin-3-yl)benzyl)piperazin-1-yl)methyl)-1-methyl-1,2,3,4-tetrahydroisoquinoline-2-carbonyl)-3-(6-methylpyridin-2-yl)acrylonitrile], the DC50 in experiment [1] is less than 1.25 nM; in experiment [2], 1.25 to 10 nM. Also, the Dmax in experiment [1] and in experiment [2] was 40 to 70% each time.
Turning to `COc1cc(-c2cn(C)c(=O)c(C)c2C)cc(OC)c1CN1CC2CC(C1)N2Cc1cccc2c1CCN(C(=O)/C(C#N)=C/c1ccnc(C)n1)C2C` (mixture of isomers) [Compound B25, (E/Z)-2-(5-((3-(2,6-dimethoxy-4-(1,4,5-trimethyl-6-oxo-1,6-dihydropyridin-3-yl)benzyl)-3,6-diazabicyclo[3.1.1]heptan-6-yl)methyl)-1-methyl-1,2,3,4-tetrahydroisoquinoline-2-carbonyl)-3-(2-methylpyrimidin-4-yl)acrylonitrile], in experiment [1], the DC50 was in the range of 1.25 to 10 nM and the Dmax is more than 75%. In addition, in experiment [2], the DC50 was in the range of 1.25 to 10 nM and the Dmax is more than 75%.
In the case of `COc1cc(-c2cn(C)c(=O)c(C)c2C)cc(OC)c1CN1CCN(CC(=O)NCCOc2ccc3c(c2)C(C)N(C(=O)/C(C#N)=C/c2nccs2)CC3)CC1` (mixture of isomers) [Compound B29, (E/Z)—N-(2-((2-(2-cyano-3-(thiazol-2-yl)acryloyl)-1-methyl-1,2,3,4-tetrahydroisoquinolin-7-yl)oxy)ethyl)-2-(4-(2,6-dimethoxy-4-(1,4,5-trimethyl-6-oxo-1,6-dihydropyridin-3-yl)benzyl)piperazin-1-yl)acetamide], in experiment [1], the DC50 is 25 to 1000 nM and the Dmax lay within 70 to 75%. Also, in experiment [2], the DC50 was 10 to 25 nM and the greatest degradation seen (Dmax) was more than 75%.
In the case of `COc1cc(-c2cn(C)c(=O)c(C)c2C)cc(OC)c1CN1CCN(CC(=O)NCCOc2ccc3c(c2)CCN(C(=O)/C(C#N)=C/c2nccs2)C3C)CC1` (mixture of isomers) [Compound B31, (E/Z)—N-(2-((2-(2-cyano-3-(thiazol-2-yl)acryloyl)-1-methyl-1,2,3,4-tetrahydroisoquinolin-6-yl)oxy)ethyl)-2-(4-(2,6-dimethoxy-4-(1,4,5-trimethyl-1-oxo-1,6-dihydropyridin-3-yl)benzyl)piperazin-1-yl)acetamide], the Dmax in experiment [1] fell in the range of 40 to 70%. In experiment [2], the DC50 lay in the range of 10 to 25 nM and the Dmax fell in the range of 40 to 70%.
For `COc1cc(-c2cn(C)c(=O)c(C)c2C)cc(OC)c1CN1CCN(CC(=O)NCCOc2cccc(C3CCCN3C(=O)/C(C#N)=C/c3nccs3)c2)CC1` (mixture of isomers) [Compound B32, (E/Z)—N-(2-(3-(1-(2-cyano-3-(thiazol-2-yl)acryloyl)pyrrolidin-2-yl)phenoxy)ethyl)-2-(4-(2,6-dimethoxy-4-(1,4,5-trimethyl-6-oxo-1,6-dihydropyridin-3-yl)benzyl)piperazin-1-yl)acetamide], in experiment [1], the DC50 fell in the range of 25 to 1000 nM and the Dmax lay within 40 to 70%. In experiment [2], the DC50 lay within 25 to 1000 nM and the Dmax was in the range of 40 to 70%.
As for `COc1cc(-c2cn(C)c(=O)c(C)c2C)cc(OC)c1CN(C)Cc1ccc(C2CCCN2C(=O)/C(C#N)=C/C(C)(C)C)cc1` (mixture of isomers) [Compound B34], the results for the DC50 in experiment [1] and in experiment [2] were 10 to 25 nM and 1.25 to 10 nM, respectively. Further, the Dmax in experiment [1] and in experiment [2] was 40 to 70% throughout.
For `COc1cc(-c2cn(C)c(=O)c(C)c2C)cc(OC)c1CN1CCN(C(=O)c2cccc(C3CCCN3C(=O)/C(C#N)=C/C(C)(C)C)c2)CC1` (mixture of isomers) [Compound B35, (E/Z)-2-(2-(3-(4-(2,6-dimethoxy-4-(1,4,5-trimethyl-6-oxo-1,6-dihydropyridin-3-yl)benzyl)piperazine-1-carbonyl)phenyl)pyrrolidine-1-carbonyl)-4,4-dimethylpent-2-enenitrile], in experiment [1], the DC50 lay in the range of 25 to 1000 nM and the Dmax was more than 75%. Besides, in experiment [2], the DC50 lay in the range of 10 to 25 nM and the Dmax was more than 75%.
For the molecule `COc1cc(-c2cn(C)c(=O)c(C)c2C)cc(OC)c1CN1CCN(Cc2cccc3c2CCN(C(=O)/C(C#N)=C/C2(C(F)(F)F)CCC2)C3C)CC1` (mixture of isomers) [Compound B36, (E/Z)-2-(5-((4-(2,6-dimethoxy-4-(1,4,5-trimethyl-6-oxo-1,6-dihydropyridin-3-yl)benzyl)piperazin-1-yl)methyl)-1-methyl-1,2,3,4-tetrahydroisoquinoline-2-carbonyl)-3-(1-(trifluoromethyl)cyclobutyl)acrylonitrile], in experiment [1], the DC50 was in the range of 1.25 to 10 nM and the Dmax is 40 to 70%. In experiment [2], the DC50 was in the range of 25 to 1000 nM and the Dmax fell in the range of 40 to 70%.
